Laboratory results as given in patent US20040053270A1, “RNA binding compounds and uses thereof” (priority 2000, published 2004).

Tested on: E. coli ribosomes
Conditions: 20 nM competitor, 20 nM oxazolidinone-TAMRA reporter
Description: The interaction between oxazolidinone-TAMRA and E. coli ribosomes was monitored by comparing the change in fluorescence anisotropy in the presence and absence of 100 μM non-fluorescent oxazolidinone competitor. Each measurement was made in a 400 μl cuvette, in a Perkin Elmer LS50B fluorimeter. Increasing amounts of ribosomes (corresponding to the amounts shown in FIG. 6) were added to a solution of 20 nM oxazolidinone-TAMRA in the presence of 50 mM Tris.HCl pH 7.5, 70 mM NH4Cl, 30 mM KCl, 7 mM MgCl2, 1 mM DTT, 0.5 mM EDTA. For each titration point an anisotropy measurement was acquired using an excitation wavelength of 554 nm with the excitation slits set to 10 nm and an emission wavelength of 575 nm with the emission slits set to 10 nm.
The same experiment was performed, but using 20 nM non-fluorescent linezolid (an oxazolidinone) as the competitor.

Compound: CC(=O)NC[C@H]1CN(c2ccc(N3CCOCC3)c(F)c2)C(=O)O1 [linezolid]
- anisotropy upon addition of the ribosomes in the presence of competitor: considerably reduced
